The text below walks through data of article PMC12592139, “Quantitative assessment of the usability of electromechanical human-based modelling and simulation to replace Langendorff isolated rabbit heart experiments in the preclinical setting” (Frontiers in Pharmacology, 2025).

Like-named read-outs stand apart in the source and are kept apart here. Some results are limits rather than exact numbers.

One data set concerns the target hERG channel (Homo sapiens, UniProt Q12809). The experiment in a line: Automated patch-clamp (QPatch) on hERG channel.
A further data set deals with isolated rabbit heart. The data set is described as follows: Ex vivo rabbit whole-heart Langendorff experiments (QT, left ventricular pressure). As to conditions: 0.1µM. How it is done:
Routine experimental measurements used in this study were retrieved from already existing datasets collected and curated by Sanofi, contributing to the 3R principles in animal experimentation: replacement, reduction and refinement. All the procedures described in the present study were performed in agreement with the European regulation (2010/63/EU) and under the approval and control of Sanofi’s ethics committee. […]
Hearts were spontaneously beating. […] The left ventricular pressure was evaluated using a pressure transducer within a saline-filled latex balloon inserted into the ventricular chamber. […] The electrocardiogram was recorded with two flexible electrodes gently pressed on the epicardium. The ECG parameters PQ, QRS, and QT durations were calculated using specific software (HEM-Notocord systems).
After stabilization, pressure was recorded with the vehicle for 15 min and used as a control period. […]
Baseline biomarker measurements were established in control conditions for both ex vivo experiments and in silico simulations, benchmarking compound results at each concentration against these respective controls. Percent variations of means for experiments and simulations were calculated. In the population, these variations were measured against each cell’s control, and the group mean is calculated.

In another data set the target is T1, hNCX1 (Homo sapiens, UniProt P32418).
T1 construct: expressed in transfected cells; host or cells: CHO cell lines
The experiment in a line: Cell-based calcium mobilization assay on CHO cell lines expressing NCX1. As to conditions: for IC50: Fluo4-AM. The protocol:
Furthermore, in vitro potency for 11 compounds was assessed on the NCX isoforms using a cell-based calcium mobilization assay on CHO cell lines expressing NCX1, NCX2 or NCX3. Measurements of intracellular calcium concentration employed a fluorescent imaging plate reader (Molecular Devices, United States) with the calcium-sensitive dye Fluo4-AM. Detailed methods are described in [Pelat et al. (2021)].

The test system of a further data set is L-type calcium current. Also on record: method as in Trovato et al., 2025. Conditions: at EC50; ref Trovato et al., 2025; cited from earlier work.
The next data set concerns the target late hNav1.5 (Homo sapiens, UniProt Q14524). The data set is described as follows: Late hNav1.5 inhibition in vitro. The data set is classed as cell-based.
Another data set relates to QTc. As to conditions: clinical, administered in isolation; ref El Kadri et al., 2022; Morrisette et al., 2020; cited from earlier work.
For a further data set, the target named is hNav1.5 (Homo sapiens, UniProt Q14524). The experiment in a line: Automated patch-clamp (QPatch) on hNav1.5 (peak sodium current).
Another data set has as its target hCav1.2 (Homo sapiens, UniProt Q13936). The data set is described as follows: Automated patch-clamp (SyncroPatch) on hCav1.2.
The next data set has as its target T2, hKv4.3 (Homo sapiens, UniProt Q9UK17).
T2 construct: expressed in transfected cells
T2 sequence (Q9UK17 1-655): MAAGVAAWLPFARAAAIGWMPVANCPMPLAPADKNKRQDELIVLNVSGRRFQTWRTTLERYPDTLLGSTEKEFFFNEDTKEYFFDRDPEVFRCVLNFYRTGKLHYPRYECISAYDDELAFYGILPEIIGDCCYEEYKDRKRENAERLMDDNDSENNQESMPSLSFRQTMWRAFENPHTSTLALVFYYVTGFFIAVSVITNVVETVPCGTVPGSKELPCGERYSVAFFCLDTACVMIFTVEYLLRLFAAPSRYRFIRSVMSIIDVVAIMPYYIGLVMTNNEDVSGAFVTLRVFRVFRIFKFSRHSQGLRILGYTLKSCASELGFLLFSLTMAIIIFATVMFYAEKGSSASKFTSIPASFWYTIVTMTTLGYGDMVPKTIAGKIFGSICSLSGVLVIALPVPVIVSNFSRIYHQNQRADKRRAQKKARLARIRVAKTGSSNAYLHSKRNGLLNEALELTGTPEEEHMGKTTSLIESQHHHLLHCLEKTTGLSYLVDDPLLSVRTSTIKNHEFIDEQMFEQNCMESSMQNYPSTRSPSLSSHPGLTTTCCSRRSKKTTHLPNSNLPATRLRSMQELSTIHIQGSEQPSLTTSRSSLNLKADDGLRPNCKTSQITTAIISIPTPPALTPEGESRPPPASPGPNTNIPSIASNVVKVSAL
The data set is described as follows: Automated patch-clamp (QPatch) on hKv4.3. The data set is classed as cell-based.

The mark [1] stands for this setting: CHO cells, calcium mobilization.

Sequence of hNav1.5 (Q14524 whole entry): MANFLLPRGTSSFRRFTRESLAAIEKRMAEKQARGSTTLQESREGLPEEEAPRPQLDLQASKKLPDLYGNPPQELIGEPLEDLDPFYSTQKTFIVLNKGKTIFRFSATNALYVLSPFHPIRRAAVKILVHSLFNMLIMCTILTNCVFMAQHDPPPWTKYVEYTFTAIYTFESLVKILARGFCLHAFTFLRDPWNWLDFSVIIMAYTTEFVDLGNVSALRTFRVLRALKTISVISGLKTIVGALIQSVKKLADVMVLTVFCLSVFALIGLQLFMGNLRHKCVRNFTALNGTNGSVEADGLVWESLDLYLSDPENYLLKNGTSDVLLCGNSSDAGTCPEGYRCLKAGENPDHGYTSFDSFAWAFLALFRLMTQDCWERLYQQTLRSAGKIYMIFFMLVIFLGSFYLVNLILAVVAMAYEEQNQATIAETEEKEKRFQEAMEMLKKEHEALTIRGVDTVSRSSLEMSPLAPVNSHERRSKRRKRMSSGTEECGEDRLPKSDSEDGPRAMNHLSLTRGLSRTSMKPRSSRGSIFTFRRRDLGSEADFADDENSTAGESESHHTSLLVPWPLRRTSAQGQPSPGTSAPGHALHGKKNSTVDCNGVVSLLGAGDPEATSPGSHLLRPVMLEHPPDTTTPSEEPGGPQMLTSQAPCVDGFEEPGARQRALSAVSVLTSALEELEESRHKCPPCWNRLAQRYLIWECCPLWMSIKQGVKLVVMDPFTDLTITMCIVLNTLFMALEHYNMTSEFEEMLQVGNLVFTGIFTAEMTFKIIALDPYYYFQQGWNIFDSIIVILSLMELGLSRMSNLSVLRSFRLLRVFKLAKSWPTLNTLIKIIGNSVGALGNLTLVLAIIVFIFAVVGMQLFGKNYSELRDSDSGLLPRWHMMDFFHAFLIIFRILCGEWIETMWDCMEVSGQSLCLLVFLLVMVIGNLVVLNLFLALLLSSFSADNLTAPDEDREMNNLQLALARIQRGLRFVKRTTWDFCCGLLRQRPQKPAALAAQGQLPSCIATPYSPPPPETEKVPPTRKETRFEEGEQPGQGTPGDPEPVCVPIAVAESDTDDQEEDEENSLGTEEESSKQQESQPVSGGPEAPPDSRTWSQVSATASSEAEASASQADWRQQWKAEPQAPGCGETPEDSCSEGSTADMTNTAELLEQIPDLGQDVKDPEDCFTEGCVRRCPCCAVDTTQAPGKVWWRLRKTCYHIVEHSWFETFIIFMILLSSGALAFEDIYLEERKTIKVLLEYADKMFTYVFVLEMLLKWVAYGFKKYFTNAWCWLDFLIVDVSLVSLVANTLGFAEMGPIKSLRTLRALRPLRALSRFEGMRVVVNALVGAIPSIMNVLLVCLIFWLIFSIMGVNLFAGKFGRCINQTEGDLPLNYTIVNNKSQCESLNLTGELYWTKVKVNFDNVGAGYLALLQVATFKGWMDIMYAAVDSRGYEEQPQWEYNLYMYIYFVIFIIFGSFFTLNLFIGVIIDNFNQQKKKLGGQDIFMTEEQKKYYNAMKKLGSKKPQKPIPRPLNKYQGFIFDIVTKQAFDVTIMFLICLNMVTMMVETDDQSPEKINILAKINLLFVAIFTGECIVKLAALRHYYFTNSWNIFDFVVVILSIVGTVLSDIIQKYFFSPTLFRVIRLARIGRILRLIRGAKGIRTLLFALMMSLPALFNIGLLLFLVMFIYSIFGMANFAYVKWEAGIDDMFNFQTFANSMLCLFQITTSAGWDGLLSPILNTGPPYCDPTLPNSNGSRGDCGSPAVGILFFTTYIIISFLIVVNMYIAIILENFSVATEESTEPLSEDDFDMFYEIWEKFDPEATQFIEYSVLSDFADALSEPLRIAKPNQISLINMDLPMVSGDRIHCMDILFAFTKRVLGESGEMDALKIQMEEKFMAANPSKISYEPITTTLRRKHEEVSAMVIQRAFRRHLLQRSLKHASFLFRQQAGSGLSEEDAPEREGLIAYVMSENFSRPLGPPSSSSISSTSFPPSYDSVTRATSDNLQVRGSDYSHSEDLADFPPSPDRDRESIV
Sequence of hERG channel (Q12809 whole entry): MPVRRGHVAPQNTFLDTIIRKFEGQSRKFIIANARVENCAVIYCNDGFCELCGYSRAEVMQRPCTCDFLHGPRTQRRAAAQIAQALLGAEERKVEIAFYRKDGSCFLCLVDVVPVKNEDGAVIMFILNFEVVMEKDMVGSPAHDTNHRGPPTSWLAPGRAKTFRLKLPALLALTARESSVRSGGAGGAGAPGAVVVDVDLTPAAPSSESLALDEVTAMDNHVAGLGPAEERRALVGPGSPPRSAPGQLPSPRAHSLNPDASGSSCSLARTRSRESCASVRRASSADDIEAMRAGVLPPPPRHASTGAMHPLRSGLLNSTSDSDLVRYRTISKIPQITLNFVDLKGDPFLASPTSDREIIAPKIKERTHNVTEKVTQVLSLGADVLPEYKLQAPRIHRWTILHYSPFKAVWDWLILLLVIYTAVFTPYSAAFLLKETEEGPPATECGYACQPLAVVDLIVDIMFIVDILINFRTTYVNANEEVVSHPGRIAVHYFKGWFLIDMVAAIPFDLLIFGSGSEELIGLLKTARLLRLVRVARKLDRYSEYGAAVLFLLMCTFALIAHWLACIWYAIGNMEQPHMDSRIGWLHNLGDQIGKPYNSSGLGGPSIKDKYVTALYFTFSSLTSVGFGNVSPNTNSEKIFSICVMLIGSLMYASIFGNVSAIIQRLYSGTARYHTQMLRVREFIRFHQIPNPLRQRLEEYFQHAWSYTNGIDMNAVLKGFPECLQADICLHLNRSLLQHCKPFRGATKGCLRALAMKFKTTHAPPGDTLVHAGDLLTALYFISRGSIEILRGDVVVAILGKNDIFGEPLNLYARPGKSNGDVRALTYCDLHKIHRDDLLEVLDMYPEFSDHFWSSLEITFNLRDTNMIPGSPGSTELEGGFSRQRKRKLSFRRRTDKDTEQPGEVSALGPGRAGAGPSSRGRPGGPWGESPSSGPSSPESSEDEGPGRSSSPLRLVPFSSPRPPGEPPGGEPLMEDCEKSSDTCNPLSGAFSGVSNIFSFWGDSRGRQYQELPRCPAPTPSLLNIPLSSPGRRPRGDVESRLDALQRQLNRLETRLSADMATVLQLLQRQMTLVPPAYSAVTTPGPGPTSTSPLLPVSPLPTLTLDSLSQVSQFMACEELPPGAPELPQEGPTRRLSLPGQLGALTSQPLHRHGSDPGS
Experimental for hCav1.2: (§1) The QPatch system (Sophion, Denmark) was used to investigate hERG, hNav1.5 and hKv4.3, and the SyncroPatch system (Nanion, Germany) was employed for hCav1.2. Recordings for all 37 compounds were performed at 21 °C.
(§2) When a Hill coefficient was not available, it was approximated as 1.
Experimental for hERG channel: as §1, §2
Text for hKv4.3: Following the procedure in [Trovato et al. (2022)], we used automated patch-clamp platforms to study four ionic currents relevant to human repolarisation, as outlined by [Zhou et al. (2020)] as the minimum set of ion channels, marked by the CiPA Ion Channel Work Group, for reliable predictions of repolarisation abnormalities. […] The QPatch system (Sophion, Denmark) was used to investigate hERG, hNav1.5 and hKv4.3, and the SyncroPatch system (Nanion, Germany) was employed for hCav1.2. Recordings for all 37 compounds were performed at 21 °C.
as §2

For the compound `CC(CCc1ccc(O)cc1)NCCc1ccc(O)c(O)c1` (centres unmarked) [Dobutamine], on hERG channel, the IC50 was 22.1 µM. In addition, the “increase in ventricular pressure” value in the data set on isolated rabbit heart is on record as 17%. Besides, on hNCX1, the NCX inhibition result is given as “does not inhibit” and the “hNCX1 % block @ 30 µM” value turned out to be 15.00%. Moreover, the “increase of L-type calcium current (factor)” value with L-type calcium current is reported as 1.22.

As to `CCN(CCO)CCCC(C)Nc1ccnc2cc(Cl)ccc12` (centres unmarked) [SA1068, Hydroxychloroquine], the “Late Nav1.5 % block @ 30 µM” value on late hNav1.5 (30 µM) is on record as 15%. For the same compound, the half-inhibitory concentration (IC50) at late hNav1.5 (read-out: Late Nav1.5 IC50) is above 30 µM; against hERG channel, 7 µM; at hNav1.5, 90 µM; against hCav1.2 it was 7.6 µM; at hNCX1 (setting [1]) it was above 30 µM. Besides, the “average increase in QTc” value in the data set on QTc is recorded as 11 ms. For the same compound, the “hNCX1 % block @ 30 µM” value at hNCX1 came out at 14%.

For `[H]/N=C(\N/C(=N/[H])Nc1ccc(Cl)cc1)NC(C)C` [SA1790, Paludrine], the concentration for half-maximal inhibition (IC50) on hERG channel was above 30 µM.

Turning to `CN(C)C(=O)C(CCN1CCC(O)(c2ccc(Cl)cc2)CC1)(c1ccccc1)c1ccccc1` [SA2089, Loperamide], the IC50 on hNav1.5 is 2.1 µM; on hCav1.2 it was 3.9 µM.

`COC(=O)N1CCN(Cc2cccc(NC(=O)Nc3ccc(C)nc3)c2F)CC1` [SA3064, Omecamtiv]: the IC50 on hERG channel (read-out: hERG IC50, automated patch-clamp, 21 °C, IC50 not achieved taken at maximum concentration or estimated with Hill coefficient 1) was 126 µM.

On to `C=C(C)[C@@H]1CCC(C)=C[C@H]1c1c(O)cc(CCCCC)cc1O` [SA5067, Cannabidiol], for which the IC50 against hERG channel amounted to 21.8 µM; against hNav1.5, 28.1 µM; at hKv4.3, 7.75 µM; on hCav1.2, 11.8 µM; on hNCX1 (setting [1]), 18.9 µM. The “hNCX1 nh (Hill coefficient)” value on hNCX1 (setting [1]) is on record as “nH 1.7”.

In the case of `CN1CCN(C2=Nc3cc(Cl)ccc3Nc3ccccc32)CC1` [SA5332, Clozapine], the IC50 was 23.2 µM against hNav1.5 and 61.7 µM at hKv4.3 (automated patch-clamp, 21 °C, IC50 not achieved taken at maximum concentration or estimated with Hill coefficient 1, read-out: Kv4.3 IC50).

As to `CCN(CC)CC(=O)Nc1c(C)cccc1C` [SA5350, Lidocaine], the “hNCX1 % block @ 30 µM” value on hNCX1 is 6.00%.

The compound `C[C@@H]1OCC2(CCN(c3cnc(Sc4ccnc(N)c4Cl)c(N)n3)CC2)[C@@H]1N` [SA6687, Batoprotafib] gave a 50% inhibitory concentration (IC50) at hERG channel of 8 µM.

`CN=C(N)NC(=O)Nc1c(C)cccc1C` [SA9977, Lidamidine] had a 50% inhibitory concentration (IC50) on hERG channel (human) above 30 µM. Also, the “hNCX1 % block @ 30 µM” value at hNCX1 worked out at 17.00%.
